Reference: PMC5862592, “CDK8/19 inhibition induces premature G1/S transition and ATR-dependent cell death in prostate cancer cells” (Oncotarget, 2018)
Like-named read-outs stand apart in the source and are kept apart here.

Columns and labels:
Assay in all cases: biochemical
Design in all cases: KINOMEscan active site-directed competition binding assay (DiscoveRx), 456 kinases, per cent of control at 300 nM
Details in all cases: read-out: Percent of Control (%)
PRKCD = PRKCD (Homo sapiens, UniProt Q05655)
Procedure: (§1) Kinase selectivity of T-474 and T-418 was evaluated at 300 nmol/L using a panel of 456 kinases at DiscoveRx (KINOMEscan). The platform employs an active site-directed competition binding assay to quantitatively measure interactions between test compounds and kinases. […] In VCaP prostate cancer cells, treatment with T-474 or T-418 suppressed the phosphorylation of the known CDK8 substrate STAT1 at Ser727 both in the absence and in the presence of IFN-γ (Figure 1B), which stimulates CDK8-mediated STAT1 phosphorylation.

[1] = molecular target: T1, ABL1(F317I)-phosphorylated (Homo sapiens, UniProt P00519, F317I)
T1 construct: phosphorylated
Procedure: as §1

EPHA8 = EPHA8 (Homo sapiens, UniProt P29322)
Procedure: as §1

FLT3(K663Q) = FLT3(K663Q) (Homo sapiens, UniProt P36888, K663Q)
Procedure: as §1

CDKL1 = CDKL1 (Homo sapiens, UniProt Q00532)
Sequence of CDKL1 (Q00532 whole entry): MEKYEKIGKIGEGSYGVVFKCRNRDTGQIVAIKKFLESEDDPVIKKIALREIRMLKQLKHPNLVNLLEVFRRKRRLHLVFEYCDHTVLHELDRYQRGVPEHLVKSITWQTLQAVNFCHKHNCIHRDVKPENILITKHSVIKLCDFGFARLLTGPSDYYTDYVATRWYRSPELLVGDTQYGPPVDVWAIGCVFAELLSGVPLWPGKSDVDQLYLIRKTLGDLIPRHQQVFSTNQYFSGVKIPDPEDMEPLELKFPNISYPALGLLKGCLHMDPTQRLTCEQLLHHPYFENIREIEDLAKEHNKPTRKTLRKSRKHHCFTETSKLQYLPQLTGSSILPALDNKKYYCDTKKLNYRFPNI
Procedure: as §1

DAPK3 = DAPK3 (Homo sapiens, UniProt O43293)
Procedure: as §1

CAMK2B = CAMK2B (Homo sapiens, UniProt Q13554)
Sequence of CAMK2B (Q13554 whole entry): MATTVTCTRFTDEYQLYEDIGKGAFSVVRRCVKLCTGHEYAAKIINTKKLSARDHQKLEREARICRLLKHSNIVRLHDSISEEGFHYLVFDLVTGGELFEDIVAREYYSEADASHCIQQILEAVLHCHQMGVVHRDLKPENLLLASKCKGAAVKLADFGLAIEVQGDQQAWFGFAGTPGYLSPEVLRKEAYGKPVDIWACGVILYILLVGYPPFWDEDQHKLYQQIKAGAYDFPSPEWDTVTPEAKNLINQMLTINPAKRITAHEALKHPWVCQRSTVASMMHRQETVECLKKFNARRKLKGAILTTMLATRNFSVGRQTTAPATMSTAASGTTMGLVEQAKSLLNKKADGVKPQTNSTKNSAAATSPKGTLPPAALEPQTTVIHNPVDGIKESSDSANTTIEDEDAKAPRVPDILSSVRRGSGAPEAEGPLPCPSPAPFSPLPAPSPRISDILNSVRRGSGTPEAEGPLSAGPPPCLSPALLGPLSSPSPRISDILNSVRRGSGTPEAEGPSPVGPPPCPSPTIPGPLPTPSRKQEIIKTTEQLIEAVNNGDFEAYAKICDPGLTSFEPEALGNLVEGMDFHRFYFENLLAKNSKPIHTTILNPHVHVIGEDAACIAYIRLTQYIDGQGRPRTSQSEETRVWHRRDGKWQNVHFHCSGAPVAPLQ
Procedure: as §1

DRAK1 = molecular target: T2, DRAK1 (Homo sapiens, UniProt Q9UEE5)
T2 construct: gene STK17A
Procedure: as §1

MARK3 = MARK3 (Homo sapiens, UniProt P27448)
Procedure: as §1

MET(Y1235D) = MET(Y1235D) (Homo sapiens, UniProt P08581, Y1235D)
Sequence of MET(Y1235D) (P08581 whole entry Y1235D): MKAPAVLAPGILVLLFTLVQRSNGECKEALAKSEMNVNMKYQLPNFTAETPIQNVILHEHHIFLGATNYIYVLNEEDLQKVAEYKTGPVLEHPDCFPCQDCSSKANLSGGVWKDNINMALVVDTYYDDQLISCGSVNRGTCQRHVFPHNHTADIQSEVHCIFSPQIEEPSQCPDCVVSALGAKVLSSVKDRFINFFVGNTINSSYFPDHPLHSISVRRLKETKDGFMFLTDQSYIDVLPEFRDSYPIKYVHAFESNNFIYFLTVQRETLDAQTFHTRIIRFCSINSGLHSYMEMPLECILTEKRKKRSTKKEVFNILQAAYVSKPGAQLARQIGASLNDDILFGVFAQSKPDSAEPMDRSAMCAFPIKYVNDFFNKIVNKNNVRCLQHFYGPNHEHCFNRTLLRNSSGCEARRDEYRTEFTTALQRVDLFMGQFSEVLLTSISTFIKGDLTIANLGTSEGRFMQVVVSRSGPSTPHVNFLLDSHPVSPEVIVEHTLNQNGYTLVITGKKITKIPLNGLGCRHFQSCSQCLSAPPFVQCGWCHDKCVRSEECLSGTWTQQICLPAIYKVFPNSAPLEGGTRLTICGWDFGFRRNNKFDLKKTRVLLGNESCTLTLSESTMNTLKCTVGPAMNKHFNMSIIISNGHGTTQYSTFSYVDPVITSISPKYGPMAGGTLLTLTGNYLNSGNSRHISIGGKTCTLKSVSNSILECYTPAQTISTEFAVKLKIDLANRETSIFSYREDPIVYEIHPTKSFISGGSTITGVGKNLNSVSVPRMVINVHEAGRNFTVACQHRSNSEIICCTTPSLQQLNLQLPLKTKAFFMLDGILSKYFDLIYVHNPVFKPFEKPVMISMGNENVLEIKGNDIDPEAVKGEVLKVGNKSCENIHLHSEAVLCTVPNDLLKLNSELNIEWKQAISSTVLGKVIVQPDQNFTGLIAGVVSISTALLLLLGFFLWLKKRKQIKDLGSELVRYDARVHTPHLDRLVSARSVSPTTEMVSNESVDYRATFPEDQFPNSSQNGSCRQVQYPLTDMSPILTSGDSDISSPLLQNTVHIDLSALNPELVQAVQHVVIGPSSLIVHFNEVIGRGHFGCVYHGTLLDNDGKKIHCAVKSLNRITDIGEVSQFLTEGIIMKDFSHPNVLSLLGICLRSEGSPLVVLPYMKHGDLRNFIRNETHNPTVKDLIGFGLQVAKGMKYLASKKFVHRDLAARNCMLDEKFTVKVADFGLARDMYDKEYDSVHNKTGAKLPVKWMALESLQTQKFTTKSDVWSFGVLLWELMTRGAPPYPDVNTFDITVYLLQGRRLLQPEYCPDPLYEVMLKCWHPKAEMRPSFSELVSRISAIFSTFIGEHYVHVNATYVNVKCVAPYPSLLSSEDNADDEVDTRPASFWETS
Procedure: as §1

LIMK2 = LIMK2 (Homo sapiens, UniProt P53671)
Sequence of LIMK2 (P53671 whole entry): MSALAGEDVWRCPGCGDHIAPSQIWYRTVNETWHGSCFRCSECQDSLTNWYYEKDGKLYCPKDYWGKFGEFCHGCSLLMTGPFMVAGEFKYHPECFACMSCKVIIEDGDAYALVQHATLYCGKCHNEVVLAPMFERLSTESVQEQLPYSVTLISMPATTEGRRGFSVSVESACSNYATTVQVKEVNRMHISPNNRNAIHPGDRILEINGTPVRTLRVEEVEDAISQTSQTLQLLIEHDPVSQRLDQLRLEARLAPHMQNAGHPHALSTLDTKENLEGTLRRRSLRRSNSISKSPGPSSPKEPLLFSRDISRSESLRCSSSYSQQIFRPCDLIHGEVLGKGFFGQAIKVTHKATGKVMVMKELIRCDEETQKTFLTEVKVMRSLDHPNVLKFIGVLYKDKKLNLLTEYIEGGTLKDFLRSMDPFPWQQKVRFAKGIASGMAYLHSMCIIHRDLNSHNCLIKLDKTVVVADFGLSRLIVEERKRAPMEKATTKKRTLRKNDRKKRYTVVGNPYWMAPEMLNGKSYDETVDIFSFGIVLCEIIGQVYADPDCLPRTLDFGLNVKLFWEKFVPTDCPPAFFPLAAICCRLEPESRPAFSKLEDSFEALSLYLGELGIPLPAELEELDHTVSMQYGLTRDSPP
Procedure: as §1

[2] = molecular target: T3, RSK2(Kin.Dom.2-C-terminal) (Homo sapiens, UniProt P51812)
T3 construct: gene RPS6KA3; Kin.Dom.2-C-terminal
Procedure: as §1

CSF1R-autoinhibited = CSF1R-autoinhibited (Homo sapiens, UniProt P07333)
Procedure: as §1

TRKB = molecular target: T4, TRKB (Homo sapiens, UniProt Q16620)
T4 construct: gene NTRK2
Procedure: as §1

MAST1 = MAST1 (Homo sapiens, UniProt Q9Y2H9)
Procedure: as §1

TRPM6 = TRPM6 (Homo sapiens, UniProt Q9BX84)
Procedure: as §1

NIM1 = molecular target: T5, NIM1 (Homo sapiens, UniProt Q8IY84)
T5 construct: gene NIM1K
Procedure: as §1

CTK = molecular target: T6, CTK (Homo sapiens, UniProt P42679)
T6 construct: gene MATK
T6 sequence (P42679 whole entry): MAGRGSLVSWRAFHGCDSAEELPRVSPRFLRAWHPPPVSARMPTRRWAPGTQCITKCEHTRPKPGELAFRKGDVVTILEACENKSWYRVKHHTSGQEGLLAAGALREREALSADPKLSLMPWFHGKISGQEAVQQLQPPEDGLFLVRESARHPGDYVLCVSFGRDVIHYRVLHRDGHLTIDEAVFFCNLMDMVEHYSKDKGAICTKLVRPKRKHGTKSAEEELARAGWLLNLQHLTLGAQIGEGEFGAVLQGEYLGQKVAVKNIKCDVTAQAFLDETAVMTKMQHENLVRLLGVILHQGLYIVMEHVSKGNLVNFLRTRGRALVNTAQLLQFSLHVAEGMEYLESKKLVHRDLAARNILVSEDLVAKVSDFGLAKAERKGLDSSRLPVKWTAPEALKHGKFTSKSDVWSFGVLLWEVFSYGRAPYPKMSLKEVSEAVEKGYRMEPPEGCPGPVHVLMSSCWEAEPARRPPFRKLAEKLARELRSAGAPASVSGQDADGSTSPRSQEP
Procedure: as §1

FGFR3 = FGFR3 (Homo sapiens, UniProt P22607)
Sequence of FGFR3 (P22607 whole entry): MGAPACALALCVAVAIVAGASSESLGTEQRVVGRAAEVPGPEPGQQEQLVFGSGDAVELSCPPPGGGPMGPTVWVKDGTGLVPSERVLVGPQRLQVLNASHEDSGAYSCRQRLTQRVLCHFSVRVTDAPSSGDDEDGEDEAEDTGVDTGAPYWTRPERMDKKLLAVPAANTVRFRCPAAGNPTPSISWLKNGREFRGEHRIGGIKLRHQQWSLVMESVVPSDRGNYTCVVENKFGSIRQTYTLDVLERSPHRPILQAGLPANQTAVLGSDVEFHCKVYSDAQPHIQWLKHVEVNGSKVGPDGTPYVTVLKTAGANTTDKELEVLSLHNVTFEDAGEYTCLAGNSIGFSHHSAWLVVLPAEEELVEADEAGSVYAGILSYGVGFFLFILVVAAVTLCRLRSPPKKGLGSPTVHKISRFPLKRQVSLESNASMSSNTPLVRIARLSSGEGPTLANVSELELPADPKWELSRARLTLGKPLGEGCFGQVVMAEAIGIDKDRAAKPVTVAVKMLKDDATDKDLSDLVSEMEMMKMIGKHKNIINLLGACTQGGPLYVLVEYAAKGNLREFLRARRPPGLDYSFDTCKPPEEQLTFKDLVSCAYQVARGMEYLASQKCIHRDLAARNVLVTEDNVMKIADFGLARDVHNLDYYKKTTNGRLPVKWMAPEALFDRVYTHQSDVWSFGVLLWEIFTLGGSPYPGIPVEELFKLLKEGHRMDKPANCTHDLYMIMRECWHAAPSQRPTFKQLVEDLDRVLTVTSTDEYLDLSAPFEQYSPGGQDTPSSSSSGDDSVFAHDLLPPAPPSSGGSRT
Procedure: as §1

SNARK = molecular target: T7, SNARK (Homo sapiens, UniProt Q9H093)
T7 construct: gene NUAK2
T7 sequence (Q9H093 whole entry): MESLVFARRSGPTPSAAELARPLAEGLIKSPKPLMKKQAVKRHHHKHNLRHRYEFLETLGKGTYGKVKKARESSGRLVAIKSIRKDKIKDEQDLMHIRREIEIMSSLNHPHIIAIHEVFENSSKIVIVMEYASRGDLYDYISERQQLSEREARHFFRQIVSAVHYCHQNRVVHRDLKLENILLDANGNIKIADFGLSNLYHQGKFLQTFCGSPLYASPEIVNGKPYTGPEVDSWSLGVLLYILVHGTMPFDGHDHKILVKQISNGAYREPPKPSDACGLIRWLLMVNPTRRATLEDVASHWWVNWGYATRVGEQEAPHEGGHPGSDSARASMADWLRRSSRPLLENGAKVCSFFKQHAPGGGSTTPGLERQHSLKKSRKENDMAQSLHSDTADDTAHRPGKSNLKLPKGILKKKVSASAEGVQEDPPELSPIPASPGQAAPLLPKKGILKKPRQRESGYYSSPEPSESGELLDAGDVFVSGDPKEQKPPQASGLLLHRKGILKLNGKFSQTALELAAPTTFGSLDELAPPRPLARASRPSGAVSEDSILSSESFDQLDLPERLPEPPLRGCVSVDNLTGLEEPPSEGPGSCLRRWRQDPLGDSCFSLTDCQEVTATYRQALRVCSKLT
Procedure: as §1

QSK = molecular target: T8, QSK (Homo sapiens, UniProt Q9Y2K2)
T8 construct: gene SIK3
Procedure: as §1

PRKD2 = PRKD2 (Homo sapiens, UniProt Q9BZL6)
Procedure: as §1

O=C(/C=C/c1cnccc1-c1ccc(F)cc1)Nc1ccc(CCc2nnco2)cc1 [T-418, (2E)-3-(4-(4-fluorophenyl)pyridin-3-yl)-N-(4-(2-(1,3,4-oxadiazol-2-yl)ethyl)phenyl)acrylamide]
remaining binding at 0.3 µM (PRKCD; sheet T-418): 100% | remaining binding at 0.3 µM ([1]; sheet T-418): 100% | remaining binding at 0.3 µM (EPHA8; sheet T-418): 88% | remaining binding at 0.3 µM (FLT3(K663Q); sheet T-418): 100% | remaining binding at 0.3 µM (CDKL1; sheet T-418): 88% | remaining binding at 0.3 µM (DAPK3; sheet T-418): 83% | remaining binding at 0.3 µM (CAMK2B; sheet T-418): 84% | remaining binding at 0.3 µM (DRAK1; sheet T-418): 100% | remaining binding at 0.3 µM (MARK3; sheet T-418): 80% | remaining binding at 0.3 µM (MET(Y1235D); sheet T-418): 95% | remaining binding at 0.3 µM (LIMK2; sheet T-418): 74% | remaining binding at 0.3 µM ([2]; sheet T-418): 100% | remaining binding at 0.3 µM (CSF1R-autoinhibited; sheet T-418): 86% | remaining binding at 0.3 µM (TRKB; sheet T-418): 100% | remaining binding at 0.3 µM (MAST1; sheet T-418): 100% | remaining binding at 0.3 µM (TRPM6; sheet T-418): 90% | remaining binding at 0.3 µM (NIM1; sheet T-418): 100% | remaining binding at 0.3 µM (CTK; sheet T-418): 100% | remaining binding at 0.3 µM (FGFR3; sheet T-418): 100% | remaining binding at 0.3 µM (SNARK; sheet T-418): 60% | remaining binding at 0.3 µM (QSK; sheet T-418): 95% | remaining binding at 0.3 µM (PRKD2; sheet T-418): 76%

Cc1ncccc1Oc1sc(C(N)=O)c2c1-c1c(cnn1C)CC2 [T-474, 1-methyl-8-((2-methylpyridin-3-yl)oxy)-4,5-dihydro-1H-thieno[3,4-g]indazole-6-carboxamide]
remaining binding at 0.3 µM (PRKCD): 96% | remaining binding at 0.3 µM [1]: 100% | remaining binding at 0.3 µM (EPHA8): 91% | remaining binding at 0.3 µM (FLT3(K663Q)): 100% | remaining binding at 0.3 µM (CDKL1): 76% | remaining binding at 0.3 µM (DAPK3): 100% | remaining binding at 0.3 µM (CAMK2B): 99% | remaining binding at 0.3 µM (DRAK1): 100% | remaining binding at 0.3 µM (MARK3): 88% | remaining binding at 0.3 µM (MET(Y1235D)): 100% | remaining binding at 0.3 µM (LIMK2): 79% | remaining binding at 0.3 µM [2]: 100% | remaining binding at 0.3 µM (CSF1R-autoinhibited): 100% | remaining binding at 0.3 µM (TRKB): 92% | remaining binding at 0.3 µM (MAST1): 100% | remaining binding at 0.3 µM (TRPM6): 95% | remaining binding at 0.3 µM (NIM1): 63% | remaining binding at 0.3 µM (CTK): 100% | remaining binding at 0.3 µM (FGFR3): 97% | remaining binding at 0.3 µM (SNARK): 74% | remaining binding at 0.3 µM (QSK): 93% | remaining binding at 0.3 µM (PRKD2): 100%
